Patent US12234257B2, “Triterpene saponin derivative and use thereof” (KOREA INSTITUTE OF SCIENCE AND TECHNOLOGY, priority 2020, dated 2025)

Columns and labels:
[1] = tested on: autophagy-related protein markers including LC3, p62, AMPK, Erk, ULK, and mTOR; experiment: Western blot of autophagy-related protein markers in ST and SN of mice; type: in vivo, mice (C57BL/6j); settings: for expression of p-mTOR in ST / p-mTOR in SN: MPTP mice; for expression of p-ULK: ST and SN, vs MPTP
Method: (§1) 40 mice were classified into five groups such that eight mice belonged to each group. After the habituation period, all mice were orally administered with a drug every day. While the mice of Groups 1 and 2 were administered with saline (p.o.), the mice of Groups 3, 4, and 5 were administered with 5 mg/kg ropinirole (p.o.), 5 mg/kg AKNS-2 (p.o.), and 15 mg/kg AKNS-2 (p.o.), respectively. From the 5th day therefrom, the mice of Group 1 were intraperitoneally administered with a saline at 1 hour after gavage feeding of saline, and the mice of Groups 2, 3, 4, and 5 were administered with 30 mg/kg MPTP (i.p.) at 1 hour after gavage feeding of saline, ropinirole, AKNS-2 (5 mg/kg), and AKNS-2 (15 mg/kg), respectively. Each mouse was administered with a single dose of saline/MPTP injection every day for 8 days. At 7 days after the final MPTP injection, all mice were sacrificed by cervical dislocation, and then the whole brain, SNpc, and striatum (ST) were excised for biochemical analysis.
(§2) On the 7th day after the last administration of MPTP, SNpc and ST of each mouse were carefully excised and stored at −80° C. until use. Thereafter, brain tissue of SNpc and ST was homogenized in a PRO-PREP™ lysis buffer (iNtRON, Gyeonggi, Korea) containing a phosphatase inhibitor cocktail set I (Sigma-Aldrich, Mo., USA). After shaking at 4° C. for 30 minutes, homogenates were centrifuged at 4° C. at 13000×g for 20 minutes, and a supernatant obtained therefrom was collected and added to a new 1.5 mL tube. A concentration of proteins contained in the supernatant was measured by the Bradford method. A part of the supernatant was mixed with the same volume of a loading buffer and denatured in a heater at 99° C. for 5 minutes for western blot analysis. The remaining supernatant was stored at −80° C. for subsequent tests for MAO-B activity and DA level using an ELISA kit.
(§3) Protein markers contained in lysates of the SH-SY5Y cells and brain tissue of the mice (SNpc and ST) were measured by western blot analysis. […] Then, proteins separated on the gel were transferred to a polyvinylidene fluoride (PVDF) membrane for 45 minutes using a Trans-Blot Turbo Transfer System (Bio-Rad, USA). The membrane was washed with tris-buffered saline with 0.1% Tween 20, TBST) for 5 minutes and then blocked by 5% skim milk dissolved in a TBST buffer. The membrane was further incubated with monoclonal primary antibodies derived from rabbits (anti-GAPDH, anti-AMPK, anti-p-AMPK, anti-ULK, anti-p-ULK555, anti-Erk, anti-p-Erk, anti-mTOR, anti-p-mTOR, anti-LC3B, anti-TH, and anti-α-synuclein antibodies). The primary antibodies were diluted in a blocking buffer at a ratio of 1:1000 and incubated overnight at 4° C. On the second day, the membrane was washed with TBST three times (10 minutes each) and incubated at room temperature in a horseradish peroxidase-conjugated goat anti-rabbit IgG secondary antibody (diluted in a blocking buffer at a ratio of 1:2000). After incubating in the secondary antibody for 1 hour, the membrane was washed for 30 minutes. The protein blots on the membrane were developed using an ECL detection kit and visualized using an LAS-4000 mini system (Fujifilm, Japan). The intensity of the protein blots was quantified using Multi Gauge software (Fujifilm, Japan).

TH and α-synuclein = experiment: Western blot of TH and α-synuclein in ST and SN of MPTP-impaired mice; type: in vivo, mice (C57BL/6j); settings: for α-synuclein level: vs MPTP-treated mice; for TH level: MPTP mice
Method: as §1, §2
as §3, with “On the second day, the membrane was washed with TBST three times (10 minutes each) and incubated at room temperature in a horseradish peroxidase-conjugated goat anti-rabbit IgG secondary antibody (diluted in a blocking buffer at a ratio of 1:2000). After incubating in the secondary antibody for 1 hour, the membrane was washed for 30 minutes. The protein blots on the membrane were developed using an ECL detection kit and visualized using an LAS-4000 mini system (Fujifilm, Japan).” left out

[2] = tested on: MPTP-induced in vivo PD model; experiment: Pole test; set-up: species or system mice (C57BL/6j); settings: MPTP mice, 2 hours
Method: In this study, all animal management and experimental protocols were performed in compliance with guidelines of the Institutional Animal Care and Use Committee of the Korea Institute of Science and Technology. 40 mice (C57BL/6j, male, 8 weeks old) were purchased from SLC Inc. (Shizuoka, Japan). After arrival, every four mice were hosed in each cage (30 cm×18.5 cm×13 cm) and allowed free access to feed and water. All mice were housed under the following constant conditions: lights on from 6:00 to 18:00, a temperature of 23° C.±1° C., and a humidity of 50%±10%. After 7 days of a habituation period, the mice were used in the experiments according to standard protocols. 40 mice were classified into five groups such that eight mice belonged to each group. After the habituation period, all mice were orally administered with a drug every day. […] Each mouse was administered with a single dose of saline/MPTP injection every day for 8 days. At 7 days after the final MPTP injection, all mice were sacrificed by cervical dislocation, and then the whole brain, SNpc, and striatum (ST) were excised for biochemical analysis. […] Each mouse was placed on the top of the pole with the head raised up, and a time taken for the mouse to turn and descend the pole was recorded up to 120 seconds with a stopwatch. […] An average time of three tests was calculated to evaluate motor function.

[3] = 15 mg/kg p.o., vs MPTP treatment
[4] = both ST and SN, vs MPTP treatment
[5] = both ST and SN, 5 mg/kg and 15 mg/kg p.o.

SMILES	expression of LC3-II in SN [1, 3]	expression of LC3-II in ST [1, 3]	expression of p-mTOR in ST [1]	p-mTOR in SN [1]	expression of p-ULK ([1]; 5 mg/kg and 15 mg/kg p.o.)	p62 levels ([1]; both ST and SN, 5 mg/kg and 15 mg/kg p.o., vs MPTP-treated group)	expression of p-Erk ([1]; both ST and SN, 15 mg/kg p.o., vs MPTP treatment)	p-AMPK [1, 4]	α-synuclein level (TH and α-synuclein; [5])	TH level (TH and α-synuclein; [5])	behavior performance in pole test ([2]; 5 mg/kg and 15 mg/kg p.o.)	expression of p-ULK ([1]; ropinirole)	α-synuclein level (TH and α-synuclein; ST and SN, 5 mg/kg p.o.)	TH level (TH and α-synuclein; both ST and SN, 5 mg/kg p.o.)	behavior performance in pole test ([2]; ropinirole (5 mg/kg p.o.))
C[C@@H]1O[C@@H](O[C@@H]2[C@@H](O)[C@H](O[C@@H]3[C@@H](O[C@@H]4OC[C@@H](O)[C@H](O)[C@H]4O)[C@@H](O)[C@H](O[C@H]4[C@H](OC(=O)[C@]56CCC(C)(C)C[C@H]5C5=CC[C@@H]7[C@@]8(C)C[C@H](O)[C@H](O[C@@H]9O[C@H](CO)[C@@H](O)[C@H](O[C@@H]%10OC[C@@H](O)[C@H](O)[C@H]%10O)[C@H]9O)[C@@](C)(CO)[C@@H]8CC[C@@]7(C)[C@]5(C)C[C@H]6O)OC[C@H](O)[C@@H]4O)O[C@H]3C)OC[C@H]2O)[C@H](O)[C@H](O)[C@H]1O [Compound 1, 3-O-β-D-xylopyranosyl-(1→3)-β-D-glucopyranosylpolygalacic acid 28-O-α-L-rhamnopyranosyl-(1→3)-β-D-xylopyranosyl-(1→4)-[β-D-xylopyranosyl-(1→3)]-α-L-rhamnopyranosyl-(1→2)-α-L-arabinopyranosyl ester]	Although no noticeable difference was observed, increased expression of LC3-II was observed in SN	induced a significant increase in the expression of LC3-II in ST	clearly showed a tendency to decrease the expression of p-mTOR in ST	a significant decrease in p-mTOR	significantly increased the expression of p-ULK in ST and SN	significantly decreased p62 levels	significantly increased	induced a significant increase in p-AMPK in both ST and SN	a significant decrease in the α-synuclein level	considerably reversed	considerably restored	–	–	–	–
CCCN(CCC)CCc1cccc2c1CC(=O)N2 [ropinirole, reference compound]	–	–	clearly showed a tendency to decrease the expression of p-mTOR in ST	a significant decrease in p-mTOR	–	–	–	induced a significant increase in p-AMPK in both ST and SN	–	–	–	significantly increased the expression of p-ULK in ST and SN	a significant decrease in the α-synuclein level	considerably reversed	considerably restored
